According to patent publication US9034891B2, “Bicyclic heterocyclic spiro compounds” (ISRAEL INSTITUTE FOR BIOLOGICAL RESEARCH, priority 2009, dated 2015):
“Also recorded” adds a separate entry of the source.

Assays:
[1] = target: T1, M1 mAChR (Homo sapiens, UniProt P11229); assay: Intracellular Ca2+ mobilization (Fluo-4 NW) in cells stably transfected with M1 mAChR; format: cell-based; parameters: expressed in transfected cells; settings: 100 μM; mobilization of intracellular Ca ions
T1 sequence (P11229 1-460): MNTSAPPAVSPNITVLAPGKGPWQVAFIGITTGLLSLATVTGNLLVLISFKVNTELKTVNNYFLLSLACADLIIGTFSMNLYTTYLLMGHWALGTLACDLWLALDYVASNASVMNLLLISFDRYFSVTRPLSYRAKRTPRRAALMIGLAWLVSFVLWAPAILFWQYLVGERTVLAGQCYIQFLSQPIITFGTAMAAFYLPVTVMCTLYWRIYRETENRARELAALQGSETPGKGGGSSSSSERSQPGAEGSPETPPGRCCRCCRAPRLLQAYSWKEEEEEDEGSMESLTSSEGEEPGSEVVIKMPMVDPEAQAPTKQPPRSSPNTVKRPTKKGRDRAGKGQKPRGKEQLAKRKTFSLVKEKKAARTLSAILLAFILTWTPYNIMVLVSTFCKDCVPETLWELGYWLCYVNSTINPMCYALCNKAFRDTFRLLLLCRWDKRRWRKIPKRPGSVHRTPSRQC
Description: On the day of experiment, cells were fully confluent.
To evaluate selectivity for a subtype of mAChR, in particular the M1 mAChR vs. M3 and MS mAChR, the assays were calibrated using ligands that have a combined activity, e.g. M1 agonistic and M3 antagonistic or M1 agonistic and MS antagonistic profiles, respectively. This can eliminate effects due to different receptor reserves in cell-based assays.

[2] = Protocol: On the day of dosing, careful clinical examinations were carried out and recorded periodically during the first 4 hours post-dosing and at the end of the respective working day. Thereafter, animals were inspected and clinical signs were recorded at least once daily throughout the entire 14-day observation period. Observations included changes in skin, fur, eyes, mucous membranes, occurrence of secretions and excretions (e.g. diarrhea) and autonomic activity (e.g. lacrimation, salivation, piloerection, pupil size, unusual respiratory pattern). Changes in gait, posture and response to handling, as well as the presence of bizarre behavior, tremors, convulsion, sleep and coma were also examined. […] In view of the sequential method applied in the current study and in order to standardize, as much as possible, all body weight and body weight gain values, the respective percentage change in body weight vs. the day of dosing was calculated for each animal and group. […] All animals were subjected to a full detailed necropsy and gross pathological examination following the scheduled termination. At necropsy, all animals were subjected to thorough examination, including the external surface of the body, all orifices, cranial, thoracic and abdominal cavities and their contents.
[3] = target: T2, rat M1 mAChR (Rattus norvegicus, UniProt P08482); assay: αAPPs secretion in PC12 cells stably transfected with rat M1 mAChR; format: cell-based; settings: 0.1 nM to 1 μM, not observed in untransfected PC12
T2 construct: expressed in transfected cells; host or cells: rat pheochromocytoma PC12 cells
T2 sequence (P08482 whole entry): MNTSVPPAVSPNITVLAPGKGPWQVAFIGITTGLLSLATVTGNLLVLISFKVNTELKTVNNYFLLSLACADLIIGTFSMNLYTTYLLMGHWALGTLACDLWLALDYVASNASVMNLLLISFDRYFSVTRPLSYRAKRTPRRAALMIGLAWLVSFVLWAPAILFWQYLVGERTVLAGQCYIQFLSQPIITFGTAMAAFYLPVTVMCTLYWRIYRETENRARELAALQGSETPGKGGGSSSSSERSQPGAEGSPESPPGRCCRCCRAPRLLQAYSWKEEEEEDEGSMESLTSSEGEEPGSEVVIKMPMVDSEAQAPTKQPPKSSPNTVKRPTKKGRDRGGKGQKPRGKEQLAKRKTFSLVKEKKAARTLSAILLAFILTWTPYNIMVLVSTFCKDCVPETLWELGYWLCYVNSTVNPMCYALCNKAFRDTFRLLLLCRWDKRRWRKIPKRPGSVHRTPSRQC
Protocol: α-APPs Secretion studies following incubation with the tested compounds were performed as described in Haring, et al. J. Neurochem., 1998, 71:2094-103. […] A day later, cells were washed twice with serum free media, and treated with the test compound at various concentrations ranging from 0.1 nM to 100 μM. […] After 1 hour the conditioned medium was collected to cold Eppendorf tubes, which included a protease inhibitor cocktail (0.1 mM phenylmethylsulphonyl fluoride (PMSF); 5 μg/ml leupeptin; 5 μg/ml pepstatin and 5 units/ml aprotinin) for determining αAPPs release. The protein content of each sample was concentrated using Centricon tubes (Amicon, Beverly, Mass.). […] CHO cells double transfected with human APP695 and M1 mAChR APPs bands were probed using anti-amyloid beta protein (1:1000, monoclonal 6E10 antibody, MAB1560, Chemicon) and peroxidase-linked rabbit anti mouse IgG (1:5,000; Jackson Immuno Research, PA). PC12 cells stably transfected with M1 mAChR APPs bands were probed using the anti-Alzheimer precursor protein A4 (1:4,000; monoclonal 22C11 antibody, Boehringer Mannheim) and the peroxidase-linked rabbit anti mouse IgG (1:20,000; Jackson Immuno Research, PA). […] Quantitative determination of the total APPs bands was performed by Scion Image program (NIH, Bethesda, USA). […]

[4] = target: T1, M1 mAChR
[5] = tested on: tau protein; assay: Tau-1 (unphosphorylated tau) western blot in PC12 cells transfected with M1 mAChR, +Aβ25-35; format: cell-based, rat; settings: 100 μM-1 nM; Aβ25-35 20 μM
Description: Anti-GSK-3 (Santa Cruz Biotechnology) is a phosphorylation-independent monoclonal antibody reactive with both GSK-3α and GSK3β. In the same experiments the status of tau protein phosphorylation was studied using mouse anti Tau-1 monoclonal antibody (Chemicon, CAT number MAB3420), which recognizes an unphosphorylated epitope of tau.

[6] = target: T1, M1 mAChR; assay: High-throughput profiling, binding at 10 μM; parameters: expressed in transfected cells
Description: (§1) It was specifically designed to provide information not only on potential limitations of drug candidates, but also for off-target activity identification. […] In a further extension of this study, functional studies were done on most of these receptors.

[7] = tested on: PC12 cells; assay: Mitochondrial apoptosis pathway, Bax and Bcl-2 immunoreactivity in PC12 cells; format: cell-based, rat
Protocol: These cells were partially differentiated (2-3 days), as observed under microscope. […] The pellet (rich mitochondrial fraction) was re-suspended with 200 μl Ripa buffer and lysed by rapid passage through a syringe needle (23G) for five to six times. The lysate was then used for further evaluation.
Bands were probed using the Rabbit Bax antibody (1:1000, Cell signaling, Cat. No. 2772) and Rabbit Bcl-2 antibody (1:1000, Cell signaling, Cat. No. 2870) followed by anti rabbit IgG (H&L) HRP (1:5,000, Jackson Immuno Research, 111-035-144).

[8] = target: T3, 5HT2B Receptor (Homo sapiens, UniProt P41595); assay: Functional study, agonist; settings: 100 μM
T3 sequence (P41595 whole entry): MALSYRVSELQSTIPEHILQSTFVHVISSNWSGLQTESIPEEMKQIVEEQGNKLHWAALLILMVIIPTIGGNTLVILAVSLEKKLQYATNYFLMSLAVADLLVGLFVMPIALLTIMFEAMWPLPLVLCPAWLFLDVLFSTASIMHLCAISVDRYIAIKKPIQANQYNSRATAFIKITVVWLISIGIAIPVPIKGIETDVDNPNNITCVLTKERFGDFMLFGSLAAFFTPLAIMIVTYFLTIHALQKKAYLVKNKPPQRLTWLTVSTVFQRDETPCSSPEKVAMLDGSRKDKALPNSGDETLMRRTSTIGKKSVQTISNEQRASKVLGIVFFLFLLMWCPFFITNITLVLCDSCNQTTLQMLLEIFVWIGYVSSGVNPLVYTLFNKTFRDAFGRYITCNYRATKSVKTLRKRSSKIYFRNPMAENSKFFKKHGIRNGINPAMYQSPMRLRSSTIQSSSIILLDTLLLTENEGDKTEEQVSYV
Description: as §1

[9] = target: T4, Mu Receptor (Homo sapiens, UniProt P35372); assay: Functional study, agonist
T4 sequence (P35372 whole entry): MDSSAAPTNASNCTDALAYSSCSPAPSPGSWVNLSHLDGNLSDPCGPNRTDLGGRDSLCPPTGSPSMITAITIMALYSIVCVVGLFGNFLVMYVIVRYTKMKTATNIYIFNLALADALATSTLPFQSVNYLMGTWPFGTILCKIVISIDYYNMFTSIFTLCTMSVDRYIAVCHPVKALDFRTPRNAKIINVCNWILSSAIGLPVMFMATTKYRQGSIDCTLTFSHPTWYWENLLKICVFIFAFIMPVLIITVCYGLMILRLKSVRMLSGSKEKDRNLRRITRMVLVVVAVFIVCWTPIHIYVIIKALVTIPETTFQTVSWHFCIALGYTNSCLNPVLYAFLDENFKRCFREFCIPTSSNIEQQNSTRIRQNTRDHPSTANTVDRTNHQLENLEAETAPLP
Description: as §1

[10] = target: 5HT Transporter (Homo sapiens, UniProt P31645); assay: High-throughput profiling, binding at 10 μM
5HT Transporter, sequence (P31645 whole entry, species assumed): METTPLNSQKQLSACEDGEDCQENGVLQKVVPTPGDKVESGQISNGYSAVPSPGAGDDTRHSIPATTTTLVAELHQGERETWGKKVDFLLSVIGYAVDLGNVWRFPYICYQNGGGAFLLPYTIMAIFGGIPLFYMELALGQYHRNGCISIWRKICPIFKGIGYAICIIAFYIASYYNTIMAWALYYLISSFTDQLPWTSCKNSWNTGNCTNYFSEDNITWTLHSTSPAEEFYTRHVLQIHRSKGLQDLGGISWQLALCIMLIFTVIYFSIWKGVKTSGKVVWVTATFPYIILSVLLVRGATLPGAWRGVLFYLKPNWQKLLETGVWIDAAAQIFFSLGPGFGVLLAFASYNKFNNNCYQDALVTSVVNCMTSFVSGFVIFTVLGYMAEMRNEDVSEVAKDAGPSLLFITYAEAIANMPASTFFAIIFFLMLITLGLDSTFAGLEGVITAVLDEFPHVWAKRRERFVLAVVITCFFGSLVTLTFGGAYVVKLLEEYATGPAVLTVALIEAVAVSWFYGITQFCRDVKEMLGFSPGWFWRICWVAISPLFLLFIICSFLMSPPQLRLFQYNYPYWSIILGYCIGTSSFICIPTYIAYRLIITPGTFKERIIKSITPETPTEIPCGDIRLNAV
Description: as §1

[11] = target: 5HT2C Receptor (Homo sapiens, UniProt P28335); assay: High-throughput profiling, binding at 10 μM
5HT2C Receptor, sequence (P28335 33-458): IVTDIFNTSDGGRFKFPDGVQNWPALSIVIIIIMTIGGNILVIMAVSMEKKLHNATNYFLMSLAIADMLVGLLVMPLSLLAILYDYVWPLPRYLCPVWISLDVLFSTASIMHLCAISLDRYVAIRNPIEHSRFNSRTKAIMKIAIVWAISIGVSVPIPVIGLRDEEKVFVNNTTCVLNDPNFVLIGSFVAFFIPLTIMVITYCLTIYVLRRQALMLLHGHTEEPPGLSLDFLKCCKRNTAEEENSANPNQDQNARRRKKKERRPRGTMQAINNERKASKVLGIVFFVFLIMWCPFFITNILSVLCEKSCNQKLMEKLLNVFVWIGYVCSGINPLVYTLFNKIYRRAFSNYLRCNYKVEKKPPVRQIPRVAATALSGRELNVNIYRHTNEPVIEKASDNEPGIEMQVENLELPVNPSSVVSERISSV
Description: as §1

[12] = target: M2 mAChR (Homo sapiens, UniProt P08172); assay: High-throughput profiling, binding at 10 μM
M2 mAChR, sequence (P08172 whole entry): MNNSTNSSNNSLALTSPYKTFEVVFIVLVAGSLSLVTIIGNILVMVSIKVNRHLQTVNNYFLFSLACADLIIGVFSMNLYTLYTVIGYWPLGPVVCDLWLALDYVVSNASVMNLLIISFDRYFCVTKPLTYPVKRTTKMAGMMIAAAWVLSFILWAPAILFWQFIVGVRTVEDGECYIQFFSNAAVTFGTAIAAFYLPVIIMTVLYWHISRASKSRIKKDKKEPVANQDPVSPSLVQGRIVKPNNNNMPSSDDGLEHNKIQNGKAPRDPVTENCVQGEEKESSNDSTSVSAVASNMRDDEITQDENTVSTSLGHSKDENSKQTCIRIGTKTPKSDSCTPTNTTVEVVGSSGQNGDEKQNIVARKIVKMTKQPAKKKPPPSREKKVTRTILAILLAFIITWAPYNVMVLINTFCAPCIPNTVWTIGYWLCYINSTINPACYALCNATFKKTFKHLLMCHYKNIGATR
Description: as §1

[13] = tested on: Sigma Receptor; assay: High-throughput profiling, binding at 10 μM
Description: as §1

[14] = target: T3, 5HT2B Receptor; assay: High-throughput profiling, binding at 10 μM
Description: as §1

[15] = target: 5HT2A receptor (Homo sapiens, UniProt P28223); assay: High-throughput profiling, binding at 10 μM
5HT2A receptor, sequence (P28223 whole entry): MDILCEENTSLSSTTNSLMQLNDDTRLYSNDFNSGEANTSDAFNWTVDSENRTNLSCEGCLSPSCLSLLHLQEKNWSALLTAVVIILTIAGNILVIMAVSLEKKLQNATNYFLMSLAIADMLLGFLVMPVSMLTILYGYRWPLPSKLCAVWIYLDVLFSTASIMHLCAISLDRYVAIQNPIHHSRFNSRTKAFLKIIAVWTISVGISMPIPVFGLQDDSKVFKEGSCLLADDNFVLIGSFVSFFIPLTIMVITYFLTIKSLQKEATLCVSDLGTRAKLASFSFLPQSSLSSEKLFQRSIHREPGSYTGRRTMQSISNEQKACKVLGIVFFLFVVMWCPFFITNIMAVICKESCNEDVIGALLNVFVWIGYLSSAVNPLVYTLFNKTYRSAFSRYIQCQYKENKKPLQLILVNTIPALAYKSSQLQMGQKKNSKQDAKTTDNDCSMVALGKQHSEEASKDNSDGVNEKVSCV
Description: as §1

[16] = target: T4, Mu Receptor; assay: High-throughput profiling, binding at 10 μM
Description: as §1

[17] = target: Histamine 2 Receptor (Homo sapiens, UniProt P25021); assay: High-throughput profiling, binding at 10 μM
Histamine 2 Receptor, sequence (P25021 whole entry): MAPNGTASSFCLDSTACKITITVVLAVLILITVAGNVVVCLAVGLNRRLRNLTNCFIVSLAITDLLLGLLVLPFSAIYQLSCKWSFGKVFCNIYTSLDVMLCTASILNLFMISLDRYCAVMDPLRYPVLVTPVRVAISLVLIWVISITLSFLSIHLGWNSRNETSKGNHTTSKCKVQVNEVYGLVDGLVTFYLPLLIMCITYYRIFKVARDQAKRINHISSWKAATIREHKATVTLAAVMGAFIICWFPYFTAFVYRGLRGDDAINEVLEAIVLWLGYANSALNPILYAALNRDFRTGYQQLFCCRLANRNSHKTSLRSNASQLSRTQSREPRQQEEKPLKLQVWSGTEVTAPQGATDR
Description: as §1

## C[C@@H]1SC2(CCN(C)CC2)CN1C(=O)CCc1c[nH]c2ccccc12 (single isomer, unassigned) [AF710B]
[1]
  M1 agonist at 100 μM vs. carbachol (full muscarinic agonist, 100%): 66%
[2]; 1, 10 and 50 mg/kg, oral gavage, 14-day observation
  mortality: No mortality
[2]; rat, in vivo, po
  gross pathological findings at necropsy: No gross pathological findings
[3]
  release of αAPPs: enhanced the release of αAPPs
[4]
  effect of brucine pre-incubation on elevation of intracellular calcium ions: no such effect; also recorded: slight inhibition
[5]
  Tau-1 staining decreased by Aβ25-35: restored these effects to control level
[6]
  binding to M1 mAChR: binds
[7]
  Bax elevation after NGF deprivation: attenuated Bax elevation
[7]; Rattus norvegicus, PC-12, 10 nM, read-out: Aβ 25-35 induced neurotoxicity expressed as Bax/Bcl2, maximum effect
  Emax at 0.01 µM: 35%
[8]
  partial agonist efficacy on 5HT2B receptor: 17%
[9]
  EC50: 13 µM
[10]
  binding to 5HT Transporter: binds
[11]
  binding to 5HT2C Receptor: binds
[12]
  binding to M2 mAChR: binds
[13]
  binding to Sigma Receptor: binds
[14]
  binding to 5HT2B Receptor: binds
[15]
  binding to 5 HT2A Receptor: binds
[16]
  binding to Mu Receptor: binds
[17]
  binding to Histamine 2 Receptor: binds
